{
  "source": "patent US20110130326A1",
  "about": "“DEFENSINS FOR TREATMENT OF INFECTIVE ENDOCARDITIS” (Novozymes A/S, priority 2009, published 2011)",
  "key": {"MRSA ATCC33591 [1]": {"test_system": "MRSA ATCC33591", "assay": "MIC by broth microdilution assay according to CLSI", "assay_type": "cell-based, Staphylococcus aureus", "procedure": "The MICs of endocardisin, vancomycin and daptomycin were determined by a broth microdilution assay according to Clinical Laboratory Standards Institute (CLSI). MIC is defined as the lowest drug concentration completely inhibiting organisms growth."}, "MRSA ATCC33591 [2]": {"test_system": "MRSA ATCC33591", "assay": "Experimental rabbit aortic infective endocarditis model, Example 1 (end of treatment and relapse)", "assay_type": "in vivo, Staphylococcus aureus", "conditions": "for Staphylococcus aureus densities, Kidneys / Staphylococcus aureus densities, Spleen / Staphylococcus aureus densities, Vegetations / Staphylococcus aureus densities, Kidneys (Relapse) / Staphylococcus aureus densities, Spleen (Relapse) / Staphylococcus aureus densities, Vegetations (Relapse): rabbit, iv, 3 days; for Staphylococcus aureus densities, Kidneys / Staphylococcus aureus densities, Spleen / Staphylococcus aureus densities, Vegetations: 24 h after last dose, mean ± SD; for Staphylococcus aureus densities, Kidneys (Relapse) / Staphylococcus aureus densities, Spleen (Relapse) / Staphylococcus aureus densities, Vegetations (Relapse): then drug-free for an extra 3 days", "procedure": "Experimental aortic infective endocarditis model was induced in New Zealand White rabbits with a methicillin-resistant Staphylococcus aureus (MRSA), strain ATCC33591, following trans-carotid-transaortic valve indwelling catheterization.\nAfter aortic catheterization and 24 hr post-infection, animals were randomized to receive either:\ni) no therapy (control); ii) endocardisin at 40 mg/kg, iv, twice daily; iii) vancomycin at 15 mg/kg, iv, twice daily; or iv) daptomycin at 12 mg/kg, iv, once daily (the latter two dose-strategies to mimic human-like PK).\nTreatments lasted for 3 days. At 24 hours after the last antibiotic dose, half the animals were sacrificed with a lethal dose of sodium pentobarbital to test the treatment efficacies. The remaining animals resided drug-free for an extra 3 days for relapse studies. At sacrifice, vegetations, kidneys and spleen were removed and quantitatively cultured. […] Culture results were expressed as mean log10 CFU per gram of tissue (±SD)."}, "MRSA ATCC33591 [3]": {"test_system": "MRSA ATCC33591", "assay": "Experimental rabbit infective endocarditis model, Example 2 (dose response)", "assay_type": "in vivo, Staphylococcus aureus", "conditions": "for Staphylococcus aureus densities, Kidneys / Staphylococcus aureus densities, Spleen / Staphylococcus aureus densities, Vegetations: rabbit, 3 days, 24 h after last dose", "procedure": "Rabbit IE was induced following transcarotid-transaortic valve indwelling catheterization. At 24 hrs after iv infection with 10^6 cfu MRSA ATCC33591 (ID95 inoculum), animals received either:\ni) no therapy (control); ii) endocardisin at 5, 10 or 20 mg/kg, iv, bid; iii) vancomycin at 15 mg/kg, iv, bid; or iv) daptomycin at 12 mg/kg, iv, once-daily;\nAll regimens were for 3 days. At 24 hours after the last antibiotic dose, target tissues were removed and quantitatively cultured."}},
  "note": "Read-outs that look alike come from different tables or passages of the source. Marks after values point to notes of the source that are not given here.",
  "data": [
    {"compound": "CCCCCCCCCC(=O)N[C@@H](Cc1c[nH]c2ccccc12)C(=O)N[C@H](CC(N)=O)C(=O)N[C@@H](CC(=O)O)C(=O)N[C@@H]1C(=O)NCC(=O)N[C@@H](CCCN)C(=O)N[C@@H](CC(=O)O)C(=O)N[C@H](C)C(=O)N[C@@H](CC(=O)O)C(=O)NCC(=O)N[C@H](CO)C(=O)N[C@@H]([C@H](C)CC(=O)O)C(=O)N[C@@H](CC(=O)c2ccccc2N)C(=O)O[C@@H]1C", "note": "[daptomycin]", "values": [
      {"measurement": "MIC", "setting": "MRSA ATCC33591 [1]; Staphylococcus aureus, study strain MRSA ATCC33591, lowest drug concentration completely inhibiting growth, read-out: MIC", "result": 0.125, "unit": "µg/mL"},
      {"measurement": "Staphylococcus aureus densities, Kidneys", "setting": "MRSA ATCC33591 [2]; 12 mg/kg, once-daily", "result": "0.76 +/− 0.52* log10 CFU/g tissue"},
      {"measurement": "Staphylococcus aureus densities, Spleen", "setting": "MRSA ATCC33591 [2]; 12 mg/kg, once-daily", "result": "0.91 +/− 0.53* log10 CFU/g tissue"},
      {"measurement": "Staphylococcus aureus densities, Vegetations", "setting": "MRSA ATCC33591 [2]; 12 mg/kg, once-daily", "result": "1.90 +/− 0.82* log10 CFU/g tissue"},
      {"measurement": "Staphylococcus aureus densities, Kidneys (Relapse)", "setting": "MRSA ATCC33591 [2]; 12 mg/kg, once-daily", "result": "1.68 +/− 2.24** log10 CFU/g tissue"},
      {"measurement": "Staphylococcus aureus densities, Spleen (Relapse)", "setting": "MRSA ATCC33591 [2]; 12 mg/kg, once-daily", "result": "1.30 +/− 1.48** log10 CFU/g tissue"},
      {"measurement": "Staphylococcus aureus densities, Vegetations (Relapse)", "setting": "MRSA ATCC33591 [2]; 12 mg/kg, once-daily", "result": "2.46 +/− 2.36** log10 CFU/g tissue"},
      {"measurement": "Staphylococcus aureus densities, Kidneys", "setting": "MRSA ATCC33591 [3]; 12 mg/kg, iv, once-daily", "result": "0.76 +/− 0.53 log10 CFU/g tissue"},
      {"measurement": "Staphylococcus aureus densities, Spleen", "setting": "MRSA ATCC33591 [3]; 12 mg/kg, iv, once-daily", "result": "0.91 +/− 0.53 log10 CFU/g tissue"},
      {"measurement": "Staphylococcus aureus densities, Vegetations", "setting": "MRSA ATCC33591 [3]; 12 mg/kg, iv, once-daily", "result": "1.90 +/− 0.82 log10 CFU/g tissue"}
    ]},
    {"compound": "CN[C@H](CC(C)C)C(=O)N[C@H]1C(=O)N[C@@H](CC(N)=O)C(=O)N[C@H]2C(=O)N[C@H]3C(=O)N[C@H](C(=O)N[C@H](C(=O)O)c4cc(O)cc(O)c4-c4cc3ccc4O)[C@H](O)c3ccc(c(Cl)c3)Oc3cc2cc(c3O[C@@H]2O[C@H](CO)[C@@H](O)[C@H](O)[C@H]2O[C@H]2C[C@](C)(N)[C@H](O)[C@H](C)O2)Oc2ccc(cc2Cl)[C@H]1O", "note": "[vancomycin]", "values": [
      {"measurement": "MIC", "setting": "MRSA ATCC33591 [1]; Staphylococcus aureus", "result": 2, "unit": "µg/mL"},
      {"measurement": "Staphylococcus aureus densities, Kidneys", "setting": "MRSA ATCC33591 [2]; 15 mg/kg, twice-daily", "result": "3.07 +/− 0.53 log10 CFU/g tissue"},
      {"measurement": "Staphylococcus aureus densities, Spleen", "setting": "MRSA ATCC33591 [2]; 15 mg/kg, twice-daily", "result": "3.02 +/− 0.51 log10 CFU/g tissue"},
      {"measurement": "Staphylococcus aureus densities, Vegetations", "setting": "MRSA ATCC33591 [2]; 15 mg/kg, twice-daily", "result": "5.60 +/− 1.47 log10 CFU/g tissue"},
      {"measurement": "Staphylococcus aureus densities, Kidneys (Relapse)", "setting": "MRSA ATCC33591 [2]; 15 mg/kg, twice-daily", "result": "4.69 +/− 1.63 log10 CFU/g tissue"},
      {"measurement": "Staphylococcus aureus densities, Spleen (Relapse)", "setting": "MRSA ATCC33591 [2]; 15 mg/kg, twice-daily", "result": "3.98 +/− 1.27 log10 CFU/g tissue"},
      {"measurement": "Staphylococcus aureus densities, Vegetations (Relapse)", "setting": "MRSA ATCC33591 [2]; 15 mg/kg, twice-daily", "result": "6.36 +/− 1.57 log10 CFU/g tissue"},
      {"measurement": "Staphylococcus aureus densities, Kidneys", "setting": "MRSA ATCC33591 [3]; 15 mg/kg, iv, twice-daily", "result": "3.07 +/− 0.53 log10 CFU/g tissue"},
      {"measurement": "Staphylococcus aureus densities, Spleen", "setting": "MRSA ATCC33591 [3]; 15 mg/kg, iv, twice-daily", "result": "3.02 +/− 0.51 log10 CFU/g tissue"},
      {"measurement": "Staphylococcus aureus densities, Vegetations", "setting": "MRSA ATCC33591 [3]; 15 mg/kg, iv, twice-daily", "result": "5.60 +/− 1.47 log10 CFU/g tissue"}
    ]},
    {"compound": "endocardisin: synthetic defensin; a polypeptide having the amino acid sequence shown in SEQ ID NO: 1 (GFGCNGPWNEDDLRCHNHCKSIKGYKGGYCAKGGFVCKCY)", "values": [
      {"measurement": "MIC", "setting": "MRSA ATCC33591 [1]; study strain MRSA ATCC33591, lowest drug concentration completely inhibiting growth", "result": 0.5, "unit": "micrograms/ml"},
      {"measurement": "preventing relapse", "setting": "MRSA ATCC33591 [2]; 3 days drug-free after 3 days treatment", "result": "most effective in preventing relapse"},
      {"measurement": "reduction of MRSA densities in all target tissues as compared with vancomycin therapy", "setting": "MRSA ATCC33591 [2]; endocardisin 40 mg/kg iv twice daily, P<0.001", "result": "significantly greater efficacy"},
      {"measurement": "Staphylococcus aureus densities, Kidneys", "setting": "MRSA ATCC33591 [2]; 40 mg/kg, twice-daily", "result": "1.18 +/− 0.75* log10 CFU/g tissue"},
      {"measurement": "Staphylococcus aureus densities, Spleen", "setting": "MRSA ATCC33591 [2]; 40 mg/kg, twice-daily", "result": "1.02 +/− 0.65* log10 CFU/g tissue"},
      {"measurement": "Staphylococcus aureus densities, Vegetations", "setting": "MRSA ATCC33591 [2]; 40 mg/kg, twice-daily", "result": "2.41 +/− 1.50* log10 CFU/g tissue"},
      {"measurement": "Staphylococcus aureus densities, Kidneys (Relapse)", "setting": "MRSA ATCC33591 [2]; 40 mg/kg, twice-daily", "result": "0.75 +/− 0.79* log10 CFU/g tissue"},
      {"measurement": "Staphylococcus aureus densities, Spleen (Relapse)", "setting": "MRSA ATCC33591 [2]; 40 mg/kg, twice-daily", "result": "1.17 +/− 0.70* log10 CFU/g tissue"},
      {"measurement": "Staphylococcus aureus densities, Vegetations (Relapse)", "setting": "MRSA ATCC33591 [2]; 40 mg/kg, twice-daily", "result": "1.45 +/− 0.64* log10 CFU/g tissue"},
      {"measurement": "dose dependence of therapeutic efficacy in all target tissues", "setting": "MRSA ATCC33591 [3]; 5, 10 or 20 mg/kg, iv, bid", "result": "dose-dependent therapeutic efficacy"},
      {"measurement": "reduction of MRSA densities in all target tissues vs. vancomycin therapy", "setting": "MRSA ATCC33591 [3]; endocardisin at 20 mg/kg", "result": "significantly greater efficacy"},
      {"measurement": "Staphylococcus aureus densities, Kidneys", "setting": "MRSA ATCC33591 [3]; 5 mg/kg, iv, twice-daily", "result": "4.33 +/− 1.27 log10 CFU/g tissue"},
      {"measurement": "Staphylococcus aureus densities, Spleen", "setting": "MRSA ATCC33591 [3]; 5 mg/kg, iv, twice-daily", "result": "4.61 +/− 1.11 log10 CFU/g tissue"},
      {"measurement": "Staphylococcus aureus densities, Vegetations", "setting": "MRSA ATCC33591 [3]; 5 mg/kg, iv, twice-daily", "result": "6.44 +/− 1.70 log10 CFU/g tissue"},
      {"measurement": "Staphylococcus aureus densities, Kidneys", "setting": "MRSA ATCC33591 [3]; 10 mg/kg, iv, twice-daily", "result": "3.19 +/− 1.06 log10 CFU/g tissue"},
      {"measurement": "Staphylococcus aureus densities, Spleen", "setting": "MRSA ATCC33591 [3]; 10 mg/kg, iv, twice-daily", "result": "2.62 +/− 0.60 log10 CFU/g tissue"},
      {"measurement": "Staphylococcus aureus densities, Vegetations", "setting": "MRSA ATCC33591 [3]; 10 mg/kg, iv, twice-daily", "result": "4.74 +/− 1.84 log10 CFU/g tissue"},
      {"measurement": "Staphylococcus aureus densities, Kidneys", "setting": "MRSA ATCC33591 [3]; 20 mg/kg, iv, twice-daily", "result": "0.61 +/− 0.21 log10 CFU/g tissue"},
      {"measurement": "Staphylococcus aureus densities, Spleen", "setting": "MRSA ATCC33591 [3]; 20 mg/kg, iv, twice-daily", "result": "0.61 +/− 0.12 log10 CFU/g tissue"},
      {"measurement": "Staphylococcus aureus densities, Vegetations", "setting": "MRSA ATCC33591 [3]; 20 mg/kg, iv, twice-daily", "result": "1.57 +/− 0.75 log10 CFU/g tissue"}
    ]}
  ]
}
